Key:
Format in all cases: biochemical
[1] = biological target: DYRK1A (Homo sapiens, UniProt Q13627); experiment: Determination of IC50 values against DYRK1a; conditions: average of duplicate; 10 concentrations 100 μM to 0.003 μM; read-out: IC 50 against DYRK1a
Procedure: The kinase assay was carried out using Multidrop 384's at room temperature in a total assay volume of 25.5 μl. To plates containing 0.5 μl of compounds, DMSO controls or acid blanks, 15 μl of an enzyme mix containing the DYRK1a enzyme and peptide/protein substrate in buffer was added. Compounds were pre-incubated in the presence of the enzyme and peptide/protein substrate for 5 minutes before initiation of the reaction by addition of 10 μl of ATP (final concentration selected for each kinase at 5, 20 or 50 μM). Assays were carried out for 30 minutes at room temperature before termination by the addition of 5 μl orthophosphoric acid. The assay plates were then harvested onto P81 Unifilter Plates by a Packard Harvester (wash buffer is 50 mM orthophosphoric acid) and dried in air. The dry Unifilter plates were then sealed by the addition of MicroScint O and counted in Packard Topcount NXT scintillation counters.

[2] = biological target: p38a MAPK (Homo sapiens, UniProt Q16539); experiment: Kinase profiling p38a MAPK; conditions: 100 micromolar inhibitor concentration; 100 is no change
Sequence of p38a MAPK (Q16539 whole entry): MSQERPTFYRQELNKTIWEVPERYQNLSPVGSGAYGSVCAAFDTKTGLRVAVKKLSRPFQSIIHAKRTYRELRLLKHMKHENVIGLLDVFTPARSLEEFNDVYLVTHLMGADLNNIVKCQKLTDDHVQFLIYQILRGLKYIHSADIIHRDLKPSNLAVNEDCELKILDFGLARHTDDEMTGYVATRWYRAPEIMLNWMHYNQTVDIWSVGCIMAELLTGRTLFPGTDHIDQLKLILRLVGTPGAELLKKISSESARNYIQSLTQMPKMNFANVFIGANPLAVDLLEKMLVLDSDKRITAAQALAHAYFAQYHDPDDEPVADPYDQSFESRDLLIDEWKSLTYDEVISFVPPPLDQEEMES
From the text: (§1) Any value less that 25 is considered to be highly significant inhibition.

[3] = biological target: ROCK 2 (Homo sapiens, UniProt O75116); experiment: Kinase profiling ROCK 2; conditions: 100 micromolar inhibitor concentration; 100 is no change
Sequence of ROCK 2 (O75116 whole entry, species assumed): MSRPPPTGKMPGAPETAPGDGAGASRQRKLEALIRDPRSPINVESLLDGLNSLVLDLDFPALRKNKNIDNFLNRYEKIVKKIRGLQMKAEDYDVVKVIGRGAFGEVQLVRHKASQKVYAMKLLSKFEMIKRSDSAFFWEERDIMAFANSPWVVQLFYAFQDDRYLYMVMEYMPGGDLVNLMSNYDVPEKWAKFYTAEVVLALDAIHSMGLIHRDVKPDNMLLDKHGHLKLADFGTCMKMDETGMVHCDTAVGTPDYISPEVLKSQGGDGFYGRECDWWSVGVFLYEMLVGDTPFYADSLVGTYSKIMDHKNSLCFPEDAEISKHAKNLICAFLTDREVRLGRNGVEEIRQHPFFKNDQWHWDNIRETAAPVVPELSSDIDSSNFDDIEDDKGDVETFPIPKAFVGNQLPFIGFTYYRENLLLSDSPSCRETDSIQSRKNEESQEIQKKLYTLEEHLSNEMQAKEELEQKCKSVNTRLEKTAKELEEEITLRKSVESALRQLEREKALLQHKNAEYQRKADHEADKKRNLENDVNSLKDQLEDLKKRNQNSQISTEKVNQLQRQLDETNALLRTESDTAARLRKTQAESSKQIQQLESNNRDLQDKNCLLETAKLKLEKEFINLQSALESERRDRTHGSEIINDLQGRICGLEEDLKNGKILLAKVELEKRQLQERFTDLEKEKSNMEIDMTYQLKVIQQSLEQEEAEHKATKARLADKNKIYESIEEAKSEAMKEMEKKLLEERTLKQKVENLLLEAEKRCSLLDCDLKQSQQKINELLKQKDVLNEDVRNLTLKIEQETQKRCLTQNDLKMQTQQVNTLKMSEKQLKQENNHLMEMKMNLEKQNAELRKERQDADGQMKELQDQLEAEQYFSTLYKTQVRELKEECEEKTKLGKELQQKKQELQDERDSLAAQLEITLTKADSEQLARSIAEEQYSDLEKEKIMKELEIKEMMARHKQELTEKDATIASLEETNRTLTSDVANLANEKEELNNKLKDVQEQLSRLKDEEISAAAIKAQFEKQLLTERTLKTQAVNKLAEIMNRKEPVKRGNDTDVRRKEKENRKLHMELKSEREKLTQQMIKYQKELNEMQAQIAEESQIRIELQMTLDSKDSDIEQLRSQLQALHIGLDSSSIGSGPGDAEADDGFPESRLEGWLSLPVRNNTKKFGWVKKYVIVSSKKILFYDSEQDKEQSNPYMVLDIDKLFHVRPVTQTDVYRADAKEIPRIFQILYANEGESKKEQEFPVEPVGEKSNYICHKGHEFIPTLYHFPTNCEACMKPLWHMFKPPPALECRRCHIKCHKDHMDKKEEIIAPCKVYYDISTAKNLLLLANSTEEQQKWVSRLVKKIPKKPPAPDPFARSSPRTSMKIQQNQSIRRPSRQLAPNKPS
From the text: as §1

[4] = biological target: PKBa (Homo sapiens, UniProt P31749); experiment: Kinase profiling PKBa; conditions: 100 micromolar inhibitor concentration; 100 is no change
Sequence of PKBa (P31749 whole entry): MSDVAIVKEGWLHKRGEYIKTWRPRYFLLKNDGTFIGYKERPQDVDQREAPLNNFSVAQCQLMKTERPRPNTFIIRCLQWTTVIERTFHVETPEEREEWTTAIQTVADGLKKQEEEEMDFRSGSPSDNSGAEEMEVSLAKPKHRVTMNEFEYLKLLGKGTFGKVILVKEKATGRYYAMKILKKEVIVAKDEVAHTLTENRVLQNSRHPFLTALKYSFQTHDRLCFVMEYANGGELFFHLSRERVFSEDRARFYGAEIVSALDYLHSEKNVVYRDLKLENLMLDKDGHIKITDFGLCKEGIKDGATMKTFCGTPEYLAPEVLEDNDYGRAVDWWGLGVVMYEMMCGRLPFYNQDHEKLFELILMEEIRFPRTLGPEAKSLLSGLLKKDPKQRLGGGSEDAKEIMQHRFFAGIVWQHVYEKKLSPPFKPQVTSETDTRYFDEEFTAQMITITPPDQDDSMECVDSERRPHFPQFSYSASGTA
From the text: as §1

[5] = biological target: PRK2 (Homo sapiens, UniProt Q16513); experiment: Kinase profiling PRK2; conditions: 100 micromolar inhibitor concentration; 100 is no change
Sequence of PRK2 (Q16513 whole entry, species assumed): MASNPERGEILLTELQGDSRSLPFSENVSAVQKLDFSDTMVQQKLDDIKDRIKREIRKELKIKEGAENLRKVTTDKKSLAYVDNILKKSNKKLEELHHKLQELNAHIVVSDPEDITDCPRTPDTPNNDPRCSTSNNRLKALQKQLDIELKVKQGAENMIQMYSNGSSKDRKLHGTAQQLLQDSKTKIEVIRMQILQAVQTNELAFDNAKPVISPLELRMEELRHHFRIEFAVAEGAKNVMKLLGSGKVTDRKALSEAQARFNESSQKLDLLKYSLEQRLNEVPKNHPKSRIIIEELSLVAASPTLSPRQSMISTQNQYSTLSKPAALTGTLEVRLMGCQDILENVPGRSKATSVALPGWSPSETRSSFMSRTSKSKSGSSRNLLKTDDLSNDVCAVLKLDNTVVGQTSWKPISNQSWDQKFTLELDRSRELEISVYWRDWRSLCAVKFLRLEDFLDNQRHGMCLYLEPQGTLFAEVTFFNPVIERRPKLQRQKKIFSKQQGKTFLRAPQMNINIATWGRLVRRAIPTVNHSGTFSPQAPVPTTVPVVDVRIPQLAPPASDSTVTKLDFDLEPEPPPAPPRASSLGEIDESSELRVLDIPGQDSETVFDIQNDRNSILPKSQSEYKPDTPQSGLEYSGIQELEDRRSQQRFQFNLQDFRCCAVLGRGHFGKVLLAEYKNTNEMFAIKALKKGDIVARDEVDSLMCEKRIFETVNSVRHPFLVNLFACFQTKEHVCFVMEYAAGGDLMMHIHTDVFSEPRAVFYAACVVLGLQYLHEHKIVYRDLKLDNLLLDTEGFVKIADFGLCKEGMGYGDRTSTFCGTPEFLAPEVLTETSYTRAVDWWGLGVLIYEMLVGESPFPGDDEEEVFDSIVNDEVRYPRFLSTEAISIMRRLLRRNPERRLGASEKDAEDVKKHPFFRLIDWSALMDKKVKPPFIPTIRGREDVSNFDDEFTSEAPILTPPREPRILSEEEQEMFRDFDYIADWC
From the text: as §1

[6] = biological target: RSK1 (Homo sapiens, UniProt Q15418); experiment: Kinase profiling RSK1; conditions: 100 micromolar inhibitor concentration; 100 is no change
Sequence of RSK1 (Q15418 whole entry, species assumed): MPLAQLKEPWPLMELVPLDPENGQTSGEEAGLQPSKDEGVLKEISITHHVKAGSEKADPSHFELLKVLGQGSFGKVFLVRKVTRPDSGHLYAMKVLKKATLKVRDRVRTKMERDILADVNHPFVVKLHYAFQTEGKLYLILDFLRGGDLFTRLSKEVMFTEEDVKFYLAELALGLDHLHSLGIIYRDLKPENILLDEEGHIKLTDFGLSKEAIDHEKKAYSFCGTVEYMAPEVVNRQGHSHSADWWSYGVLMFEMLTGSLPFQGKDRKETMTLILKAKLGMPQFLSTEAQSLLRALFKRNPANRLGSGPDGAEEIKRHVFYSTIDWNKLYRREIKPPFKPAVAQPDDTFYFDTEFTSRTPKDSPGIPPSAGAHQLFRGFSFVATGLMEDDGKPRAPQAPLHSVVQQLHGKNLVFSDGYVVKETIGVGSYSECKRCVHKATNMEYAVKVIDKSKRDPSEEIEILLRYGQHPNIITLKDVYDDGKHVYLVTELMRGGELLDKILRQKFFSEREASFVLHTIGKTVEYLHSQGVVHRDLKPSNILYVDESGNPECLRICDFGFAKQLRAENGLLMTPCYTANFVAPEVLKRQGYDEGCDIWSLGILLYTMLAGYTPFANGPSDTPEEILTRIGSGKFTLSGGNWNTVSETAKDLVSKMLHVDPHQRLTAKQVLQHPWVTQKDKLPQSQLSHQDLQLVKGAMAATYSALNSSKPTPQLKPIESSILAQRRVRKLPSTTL
From the text: as §1

[7] = biological target: PKCa (Homo sapiens, UniProt P17252); experiment: Kinase profiling PKCa; conditions: 100 micromolar inhibitor concentration; 100 is no change
From the text: as §1

[8] = biological target: T1, PDK1 (Homo sapiens, UniProt O15530); experiment: Kinase profiling PDK1; conditions: 100 micromolar inhibitor concentration; 100 is no change
T1 sequence (O15530 1-556): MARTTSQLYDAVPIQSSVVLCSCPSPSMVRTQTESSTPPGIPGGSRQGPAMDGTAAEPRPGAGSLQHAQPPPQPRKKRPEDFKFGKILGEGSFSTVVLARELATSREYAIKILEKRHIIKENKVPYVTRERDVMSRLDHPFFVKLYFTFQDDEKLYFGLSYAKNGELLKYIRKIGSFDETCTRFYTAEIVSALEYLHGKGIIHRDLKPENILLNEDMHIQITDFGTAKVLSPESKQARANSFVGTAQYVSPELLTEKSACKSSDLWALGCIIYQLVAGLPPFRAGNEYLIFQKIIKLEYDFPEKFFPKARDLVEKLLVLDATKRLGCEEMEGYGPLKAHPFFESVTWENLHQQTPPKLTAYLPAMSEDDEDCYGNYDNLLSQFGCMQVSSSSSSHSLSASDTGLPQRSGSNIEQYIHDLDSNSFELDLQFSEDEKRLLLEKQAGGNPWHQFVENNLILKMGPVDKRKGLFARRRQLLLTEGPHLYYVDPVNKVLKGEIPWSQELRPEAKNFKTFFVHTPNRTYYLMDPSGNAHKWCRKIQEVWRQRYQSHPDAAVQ
From the text: as §1

[9] = biological target: PKA (Homo sapiens, UniProt P17612); experiment: Kinase profiling PKA; conditions: 100 micromolar inhibitor concentration; 100 is no change
From the text: as §1

[10] = biological target: T2, SGK1 (Homo sapiens, UniProt O00141); experiment: Kinase profiling SGK1; conditions: 100 micromolar inhibitor concentration; 100 is no change
T2 sequence (O00141 1-431): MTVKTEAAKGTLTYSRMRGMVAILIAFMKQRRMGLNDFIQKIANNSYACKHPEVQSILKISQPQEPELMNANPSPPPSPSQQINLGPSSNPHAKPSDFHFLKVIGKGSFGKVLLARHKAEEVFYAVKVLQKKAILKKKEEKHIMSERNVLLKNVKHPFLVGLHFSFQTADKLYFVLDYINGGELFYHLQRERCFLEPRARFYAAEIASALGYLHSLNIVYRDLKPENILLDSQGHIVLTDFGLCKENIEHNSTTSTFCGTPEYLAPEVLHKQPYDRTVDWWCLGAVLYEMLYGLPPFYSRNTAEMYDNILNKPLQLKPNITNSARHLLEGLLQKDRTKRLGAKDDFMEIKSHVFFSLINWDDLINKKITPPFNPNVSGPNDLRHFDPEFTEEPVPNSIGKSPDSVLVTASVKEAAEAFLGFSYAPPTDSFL
From the text: as §1

[11] = biological target: MKK1 (Homo sapiens, UniProt Q02750); experiment: Kinase profiling MKK1; conditions: 100 micromolar inhibitor concentration; 100 is no change
Sequence of MKK1 (Q02750 whole entry, species assumed): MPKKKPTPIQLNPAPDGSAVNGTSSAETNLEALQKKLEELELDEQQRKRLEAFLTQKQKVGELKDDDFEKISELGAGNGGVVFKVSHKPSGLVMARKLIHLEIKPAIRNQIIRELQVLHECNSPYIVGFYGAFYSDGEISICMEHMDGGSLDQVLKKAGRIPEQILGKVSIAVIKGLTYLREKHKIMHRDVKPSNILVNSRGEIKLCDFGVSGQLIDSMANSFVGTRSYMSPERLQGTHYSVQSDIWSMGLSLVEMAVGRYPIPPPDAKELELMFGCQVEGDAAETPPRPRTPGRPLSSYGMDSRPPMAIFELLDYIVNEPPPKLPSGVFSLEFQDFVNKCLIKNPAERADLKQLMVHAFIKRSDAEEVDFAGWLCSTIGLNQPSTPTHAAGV
From the text: as §1

[12] = biological target: S6K1 (Homo sapiens, UniProt P23443); experiment: Kinase profiling S6K1; conditions: 100 micromolar inhibitor concentration; 100 is no change
Sequence of S6K1 (P23443 whole entry, species assumed): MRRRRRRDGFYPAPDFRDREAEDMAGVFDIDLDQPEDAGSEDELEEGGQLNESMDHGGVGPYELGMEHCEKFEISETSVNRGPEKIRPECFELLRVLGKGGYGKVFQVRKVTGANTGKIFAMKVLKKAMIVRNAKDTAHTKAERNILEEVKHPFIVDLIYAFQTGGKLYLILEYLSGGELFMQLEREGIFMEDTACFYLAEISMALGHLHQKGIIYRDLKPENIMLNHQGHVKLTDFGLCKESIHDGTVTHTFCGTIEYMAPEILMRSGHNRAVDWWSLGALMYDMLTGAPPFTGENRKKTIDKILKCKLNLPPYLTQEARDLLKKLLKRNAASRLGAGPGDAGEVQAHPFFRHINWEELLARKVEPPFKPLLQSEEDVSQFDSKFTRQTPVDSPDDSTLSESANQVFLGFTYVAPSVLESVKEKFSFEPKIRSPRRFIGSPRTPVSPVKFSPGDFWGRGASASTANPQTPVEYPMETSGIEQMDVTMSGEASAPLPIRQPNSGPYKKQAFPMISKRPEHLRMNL
From the text: as §1

[13] = biological target: T3, PKD1 (Homo sapiens, UniProt Q15139); experiment: Kinase profiling PKD1; conditions: 100 micromolar inhibitor concentration; 100 is no change
T3 sequence (Q15139 1-912): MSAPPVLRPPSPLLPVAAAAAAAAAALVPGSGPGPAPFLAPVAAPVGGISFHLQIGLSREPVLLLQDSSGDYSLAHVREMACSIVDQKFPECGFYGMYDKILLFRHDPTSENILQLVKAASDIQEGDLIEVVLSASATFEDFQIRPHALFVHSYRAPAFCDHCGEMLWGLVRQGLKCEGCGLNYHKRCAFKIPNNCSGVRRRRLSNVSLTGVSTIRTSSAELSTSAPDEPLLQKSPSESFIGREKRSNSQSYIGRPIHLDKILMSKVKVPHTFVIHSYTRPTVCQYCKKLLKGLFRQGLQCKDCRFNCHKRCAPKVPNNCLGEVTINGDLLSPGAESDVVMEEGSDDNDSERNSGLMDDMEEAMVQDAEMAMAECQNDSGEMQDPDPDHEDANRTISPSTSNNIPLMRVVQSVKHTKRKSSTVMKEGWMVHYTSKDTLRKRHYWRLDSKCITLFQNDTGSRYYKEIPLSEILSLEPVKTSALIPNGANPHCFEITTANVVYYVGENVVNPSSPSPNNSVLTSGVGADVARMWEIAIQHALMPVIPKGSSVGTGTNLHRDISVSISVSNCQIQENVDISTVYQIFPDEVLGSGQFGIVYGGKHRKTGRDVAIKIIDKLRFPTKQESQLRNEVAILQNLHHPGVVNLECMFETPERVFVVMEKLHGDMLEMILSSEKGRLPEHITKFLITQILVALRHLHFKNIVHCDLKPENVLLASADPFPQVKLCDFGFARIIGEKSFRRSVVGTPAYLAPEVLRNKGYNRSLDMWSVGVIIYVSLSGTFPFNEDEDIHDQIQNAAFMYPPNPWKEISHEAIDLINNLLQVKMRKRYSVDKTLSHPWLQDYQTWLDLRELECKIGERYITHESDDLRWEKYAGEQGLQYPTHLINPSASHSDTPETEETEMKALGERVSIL
From the text: as §1

[14] = biological target: JNK1 (Homo sapiens, UniProt P45983); experiment: Kinase profiling JNK1; conditions: 100 micromolar inhibitor concentration; 100 is no change
From the text: as §1

IC50 [1] [µM] | residual kinase activity, p38a MAPK [2] | residual kinase activity, ROCK 2 [3] | residual kinase activity, PKBa [4] | residual kinase activity, PRK2 [5] | residual kinase activity, RSK1 [6] | residual kinase activity, PKCa [7] | residual kinase activity, PDK1 [8] | residual kinase activity, PKA [9] | residual kinase activity, SGK1 [10] | residual kinase activity, MKK1 [11] | residual kinase activity, S6K1 [12] | residual kinase activity, PKD1 [13] | residual kinase activity, JNK1 [14] | SMILES
12.3 |  |  |  |  |  |  |  |  |  |  |  |  |  | COc1ccc2nc(NC(C)=O)sc2c1 [Compound 03-20]
 | 106 | 32 | 87 | 54 | 19 | 92 | 93 | 90 | 59 | 35 | 29 | 53 | 80 | CC(=O)Nc1ccc(C(=O)Nc2nc3ccc(O)cc3s2)cc1 [Compound 03-74]
15.7 |  |  |  |  |  |  |  |  |  |  |  |  |  | CC(=O)Nc1nc2ccc(C(N)=O)cc2s1 [Compound 08-70]
